According to ChEMBL document CHEMBL4346717, “1,2,4-Triazole-quinoline/quinolone hybrids as potential anti-bacterial agents” (Eur J Med Chem, 2019):
Converted amounts (≈) assume the structure as drawn.

Key:
Format in all cases: functional
Escherichia coli [1] = test: Antibacterial activity against Escherichia coli
Staphylococcus aureus [2] = test: Antibacterial activity against Staphylococcus aureus
Staphylococcus aureus [3] = test: Antibacterial activity against Staphylococcus aureus after 3 to 7 days by cup diffusion method
Bacillus subtilis [4] = test: Antibacterial activity against Bacillus subtilis after 3 to 7 days by cup diffusion method
Escherichia coli [5] = test: Antibacterial activity against Escherichia coli after 3 to 7 days by cup diffusion method
Pseudomonas aeruginosa [6] = test: Antibacterial activity against Pseudomonas aeruginosa after 3 to 7 days by cup diffusion method
Mycolicibacterium phlei [7] = test: Antibacterial activity against Mycobacterium phlei clinical isolate after 3 to 7 days by cup diffusion method
[8] = system: Aggregatibacter actinomycetemcomitans; test: Antibacterial activity against Aggregatibacter actinomycetemcomitans ATCC 29524 after 3 to 7 days by cup diffusion method
Staphylococcus aureus [9] = test: Antibacterial activity against Staphylococcus aureus assessed as zone of inhibition at 10 mg/ml after 3 to 7 days by cup diffusion method; settings: read-out: IZ
Bacillus subtilis [10] = test: Antibacterial activity against Bacillus subtilis assessed as zone of inhibition at 10 mg/ml after 3 to 7 days by cup diffusion method; settings: read-out: IZ
Escherichia coli [11] = test: Antibacterial activity against Escherichia coli assessed as zone of inhibition at 10 mg/ml after 3 to 7 days by cup diffusion method; settings: read-out: IZ
Pseudomonas aeruginosa [12] = test: Antibacterial activity against Pseudomonas aeruginosa assessed as zone of inhibition at 10 mg/ml after 3 to 7 days by cup diffusion method; settings: read-out: IZ
Mycolicibacterium phlei [13] = test: Antibacterial activity against Mycobacterium phlei clinical isolate assessed as zone of inhibition at 10 mg/ml after 3 to 7 days by cup diffusion method; settings: read-out: IZ
[14] = system: Aggregatibacter actinomycetemcomitans; test: Antibacterial activity against Aggregatibacter actinomycetemcomitans ATCC 29524 assessed as zone of inhibition at 10 mg/ml after 3 to 7 days by cup diffusion method; settings: read-out: IZ

Row | Compound | MIC (Escherichia coli [1]) [µg/mL] | MIC (Staphylococcus aureus [2]) [µg/mL] | MIC (Staphylococcus aureus [3]) | MIC (Bacillus subtilis [4]) | MIC (Escherichia coli [5]) | MIC (Pseudomonas aeruginosa [6]) | MIC (Mycolicibacterium phlei [7]) | MIC [8] | zone of inhibition at 10000 µg/mL (Staphylococcus aureus [9]) [mm] | zone of inhibition at 10000 µg/mL (Bacillus subtilis [10]) [mm] | zone of inhibition at 10000 µg/mL (Escherichia coli [11]) [mm] | zone of inhibition at 10000 µg/mL (Pseudomonas aeruginosa [12]) [mm] | zone of inhibition at 10000 µg/mL (Mycolicibacterium phlei [13]) [mm] | zone of inhibition at 10000 µg/mL [14] [mm]
1 | O=C(O)c1cn(C2CC2)c2c(cc(F)c3nn(CN4CCCC4)c(=S)n32)c1=O | 0.125 to 8 (≈ 0.31 to 19.8 µM) | 0.125 to 8 (≈ 0.31 to 19.8 µM) |  |  |  |  |  |  |  |  |  |  |  | 
2 | CCn1cc(-c2nc(/N=C/c3ccc(Br)cc3)n[nH]2)c(=O)c2ccc(C)nc21 |  |  | >=0.031 - 32 ug ml-1 | >=0.031 - 32 ug ml-1 | >=0.031 - 32 ug ml-1 | >=0.031 - 32 ug ml-1 | >=0.031 - 32 ug ml-1 | >=0.031 - 32 ug ml-1 | 20 to 40 | 20 to 40 | 20 to 40 | 20 to 40 | 20 to 40 | 20 to 40
3 | CCn1cc(-c2nc(NC(=O)c3ccc(F)cc3)n[nH]2)c(=O)c2ccc(C)nc21 |  |  | >=0.031 - 32 ug ml-1 | >=0.031 - 32 ug ml-1 | >=0.031 - 32 ug ml-1 | >=0.031 - 32 ug ml-1 | >=0.031 - 32 ug ml-1 | >=0.031 - 32 ug ml-1 | 20 to 40 | 20 to 40 | 20 to 40 | 20 to 40 | 20 to 40 | 20 to 40
4 | CCN1CCN(Cn2nc3c(F)cc4c(=O)c(C(=O)O)cn(C5CC5)c4n3c2=S)CC1 | 0.125 to 8 (≈ 0.28 to 17.9 µM) | 0.125 to 8 (≈ 0.28 to 17.9 µM) |  |  |  |  |  |  |  |  |  |  |  | 
5 | CCn1cc(-c2nc(NC(=O)c3ccc(OC)cc3)n[nH]2)c(=O)c2ccc(C)nc21 |  |  | >=0.031 - 32 ug ml-1 | >=0.031 - 32 ug ml-1 | >=0.031 - 32 ug ml-1 | >=0.031 - 32 ug ml-1 | >=0.031 - 32 ug ml-1 | >=0.031 - 32 ug ml-1 | 20 to 40 | 20 to 40 | 20 to 40 | 20 to 40 | 20 to 40 | 20 to 40
6 | O=C(O)c1cn(C2CC2)c2c(cc(F)c3nn(CN4CCCCC4)c(=S)n32)c1=O | 0.125 to 8 (≈ 0.299 to 19.2 µM) | 0.125 to 8 (≈ 0.299 to 19.2 µM) |  |  |  |  |  |  |  |  |  |  |  | 
7 | CCn1cc(-c2nc(/N=C/c3ccc(Cl)cc3)n[nH]2)c(=O)c2ccc(C)nc21 |  |  | >=0.031 - 32 ug ml-1 | >=0.031 - 32 ug ml-1 | >=0.031 - 32 ug ml-1 | >=0.031 - 32 ug ml-1 | >=0.031 - 32 ug ml-1 | >=0.031 - 32 ug ml-1 | 20 to 40 | 20 to 40 | 20 to 40 | 20 to 40 | 20 to 40 | 20 to 40
8 | CCn1cc(-c2nc(/N=C/c3ccc(F)cc3)n[nH]2)c(=O)c2ccc(C)nc21 |  |  | >=0.031 - 32 ug ml-1 | >=0.031 - 32 ug ml-1 | >=0.031 - 32 ug ml-1 | >=0.031 - 32 ug ml-1 | >=0.031 - 32 ug ml-1 | >=0.031 - 32 ug ml-1 | 20 to 40 | 20 to 40 | 20 to 40 | 20 to 40 | 20 to 40 | 20 to 40
9 | CCN(CC)Cn1nc2c(F)cc3c(=O)c(C(=O)O)cn(C4CC4)c3n2c1=S | 4 to 32 (≈ 9.87 to 78.9 µM) | 4 to 32 (≈ 9.87 to 78.9 µM) |  |  |  |  |  |  |  |  |  |  |  | 
10 | CN(C)Cn1nc2c(F)cc3c(=O)c(C(=O)O)cn(C4CC4)c3n2c1=S | 4 to 32 (≈ 10.6 to 84.8 µM) | 4 to 32 (≈ 10.6 to 84.8 µM) |  |  |  |  |  |  |  |  |  |  |  | 
11 | CCn1cc(-c2nc(/N=C/c3ccccc3O)n[nH]2)c(=O)c2ccc(C)nc21 |  |  |  | >=0.031 - 32 ug ml-1 | >=0.031 - 32 ug ml-1 | >=0.031 - 32 ug ml-1 | >=0.031 - 32 ug ml-1 | >=0.031 - 32 ug ml-1 | 20 to 40 | 20 to 40 | 20 to 40 | 20 to 40 | 20 to 40 | 20 to 40
12 | O=C(O)c1cn(C2CC2)c2c(cc(F)c3nn(CN4CCOCC4)c(=S)n32)c1=O | 0.125 to 8 (≈ 0.298 to 19.1 µM) | 0.125 to 8 (≈ 0.298 to 19.1 µM) |  |  |  |  |  |  |  |  |  |  |  | 
13 | CCn1cc(-c2nc(NC(=O)c3ccccc3)n[nH]2)c(=O)c2ccc(C)nc21 |  |  | >=0.031 - 32 ug ml-1 | >=0.031 - 32 ug ml-1 | >=0.031 - 32 ug ml-1 | >=0.031 - 32 ug ml-1 | >=0.031 - 32 ug ml-1 | >=0.031 - 32 ug ml-1 | 20 to 40 | 20 to 40 | 20 to 40 | 20 to 40 | 20 to 40 | 20 to 40
14 | CCn1cc(-c2nc(NC(=O)CCl)n[nH]2)c(=O)c2ccc(C)nc21 |  |  | >=0.031 - 32 ug ml-1 | >=0.031 - 32 ug ml-1 | >=0.031 - 32 ug ml-1 | >=0.031 - 32 ug ml-1 | >=0.031 - 32 ug ml-1 | >=0.031 - 32 ug ml-1 | 20 to 40 | 20 to 40 | 20 to 40 | 20 to 40 | 20 to 40 | 20 to 40
15 | CC1CNCCN1Cn1nc2c(F)cc3c(=O)c(C(=O)O)cn(C4CC4)c3n2c1=S (configuration not stated) | 0.125 to 0.5 (≈ 0.289 to 1.16 µM) | 0.125 to 0.5 (≈ 0.289 to 1.16 µM) |  |  |  |  |  |  |  |  |  |  |  | 
16 | CCn1cc(-c2nc(NC(=O)c3ccc(Cl)cc3)n[nH]2)c(=O)c2ccc(C)nc21 |  |  | >=0.031 - 32 ug ml-1 | >=0.031 - 32 ug ml-1 | >=0.031 - 32 ug ml-1 | >=0.031 - 32 ug ml-1 | >=0.031 - 32 ug ml-1 | >=0.031 - 32 ug ml-1 | 20 to 40 | 20 to 40 | 20 to 40 | 20 to 40 | 20 to 40 | 20 to 40
17 | CCn1cc(-c2nc(/N=C/c3ccccc3)n[nH]2)c(=O)c2ccc(C)nc21 |  |  | >=0.031 - 32 ug ml-1 | >=0.031 - 32 ug ml-1 | >=0.031 - 32 ug ml-1 | >=0.031 - 32 ug ml-1 | >=0.031 - 32 ug ml-1 | >=0.031 - 32 ug ml-1 | 20 to 40 | 20 to 40 | 20 to 40 | 20 to 40 | 20 to 40 | 20 to 40
18 | CN1CCN(Cn2nc3c(F)cc4c(=O)c(C(=O)O)cn(C5CC5)c4n3c2=S)CC1 | 0.125 to 8 (≈ 0.289 to 18.5 µM) | 0.125 to 8 (≈ 0.289 to 18.5 µM) |  |  |  |  |  |  |  |  |  |  |  | 
19 | CCn1cc(-c2nc(/N=C/c3ccc(Cl)cc3Cl)n[nH]2)c(=O)c2ccc(C)nc21 |  |  | >=0.031 - 32 ug ml-1 | >=0.031 - 32 ug ml-1 | >=0.031 - 32 ug ml-1 | >=0.031 - 32 ug ml-1 | >=0.031 - 32 ug ml-1 | >=0.031 - 32 ug ml-1 | 20 to 40 | 20 to 40 | 20 to 40 | 20 to 40 | 20 to 40 | 20 to 40
